“And” between values parts separate entries of the source, which are not always exact repeats. Equal entries are not always repeated.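 Values below derive from 48-hour exposures of cells grown in 96-well plates, with endpoints linearly interpolated between the two concentrations bracketing the appropriate inhibition level. The concentration for 50% growth inhibition is given as GI50. Definition used: TGI = concentration required for complete inhibition of growth.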
Experiments:
Experiment in all cases: inhibition of tumour cell growth, NCI panel, 48 h
[1] = system: OVCAR-8 ovarian
[2] = system: HCT-15 colon
[3] = system: EKVX NSCLC
[4] = system: SF-268 CNS
[5] = system: SK-OV-3 ovarian
[6] = system: K-562 leukemia
[7] = system: HT29 colon
[8] = system: SNB-19 CNS
[9] = system: UO-31 renal
[10] = system: HOP-62 NSCLC

| SMILES | TGI [1] [µM] | TGI [2] [µM] | TGI [3] [µM] | TGI [4] [µM] | TGI [5] [µM] | TGI [6] [µM] | TGI [7] | TGI [8] [µM] | TGI [9] [µM] | GI50 [10] [µM] | TGI [10] [µM] | GI50 [2] [µM] | GI50 [3] [µM] | GI50 [4] [µM] | GI50 [8] [µM] | GI50 [5] [µM] | GI50 [6] [µM] | GI50 [7] [µM] | GI50 [1] [µM] | GI50 [9] [µM] |
| --- | --- | --- | --- | --- | --- | --- | --- | --- | --- | --- | --- | --- | --- | --- | --- | --- | --- | --- | --- | --- |
| O=C1C2c3[nH]c4ccccc4c3C3CCCCCCC3C2C(=O)N1c1ccccc1 (centres undefined) | 14.7 | > 100 | > 100 | > 100 | 6.37 | 24.9 | > 100 µM |  |  |  |  |  |  |  |  |  |  |  |  |  |
| COc1ccc(NC2=CC(=O)C(=O)c3ccccc32)nn1 | 5.35 | 2.51 | 9.82 | 6.95 | 9.41 | 1.31 | 3.54 µM | 18.1 | 11.8 |  |  |  |  |  |  |  |  |  |  |  |
| CC1=CC(=Nc2ccc(N(CCCl)CCCl)cc2)C=C(C)C1=O |  | 11 | 35 | 2.85 | 23 | > 100 | 4.59 µM | > 65.8 |  | 1.1 | 7.37 | 1.63 | 3.31 | 0.409 | 2.81 | 3.21 | 1.21 | 1.11 |  |  |
| C/C(CC(=O)Nc1ccc(C)cc1C)=N/N=C(N)N | > 100 |  | > 100 | > 100 | > 100 | > 100 | > 100 µM |  | > 100 |  | > 100 |  |  |  |  |  |  |  |  |  |
| Cc1cc2c(cc1C)[n+](=O)c(C(=O)C/C(=N/NC(=O)CC#N)C(=O)Nc1ccccc1C(F)(F)F)c(C)n2[O-] | > 100 | > 100 | > 100 | > 100 | > 100 | > 100 | > 100 µM | > 100 |  |  | > 100 |  |  |  |  |  |  |  |  |  |
| O=C1c2cc(Cl)ccc2S(=O)(=O)c2c(NCCCNCCO)nc3ccccc3c21 | 4.53 | 2.35 | 4.83 | 4.37 | 20.9 |  | 2.94 µM | 14.4 | 2.36 | 4.54 | 16.7 | 0.926 | 1.66 | 1.7 | 3.77 | 8.54 |  | 1.4 | 1.86 | 1.13 |
| C[C@@H]1OC(O)[C@@H](F)[C@H](O)[C@@H]1O (some centres undefined) | > 100 | > 100 | > 100 | > 100 | > 100 |  | > 100 µM | > 100 | > 100 | > 100 | > 100 | > 100 | > 100 | > 100 | > 100 | > 100 |  | > 100 | > 100 | > 100 |
| COC(=O)/C=C/c1cc(OC)c(OC)c(OC)c1 | > 100 | > 100 | > 100 | > 100 | > 100 |  | > 100 µM | > 100 | > 100 |  | > 100 |  |  |  |  |  |  |  |  |  |
| O=c1[nH]ncc(Br)c1Br | 10.8 | 3.3 | 13.1 | 12.6 | 26.8 |  | 3.5 µM | 18.9 | 4.51 | 5.65 | 18.1 | 1.72 | 2.87 | 3.02 | 5.32 | 13.9 |  | 1.9 | 2.86 | 1.87 |
| COc1ccc(/C=C/c2nccc3ccccc23)cc1OC | > 10 | > 10 | > 10 | > 10 | > 10 | > 10 | > 10 µM | > 10 |  |  | > 10 |  |  |  |  |  |  |  |  |  |
| CCc1ccc(/C=C\c2cc(OC)c(OC)c(OC)c2)cc1 | 0.581 |  | > 100 | 46.9 |  |  | 0.527 µM and 0.121 µM |  | 81.3 | 0.0295 | 18.3 | 0.0327 | 0.0521 | 0.06 | 0.0176 |  |  |  |  | 0.0512 |
| COc1ccc(/C=C/CN(C)CCc2ccccc2)cc1OC | > 100 | > 100 | > 100 | > 100 |  | > 100 | > 100 µM | > 100 | > 100 |  |  |  |  |  |  |  |  |  |  |  |
| COc1ccc(-c2cnnc3c(-c4cccc(C(F)(F)F)c4)cnn23)cc1 | > 100 | > 100 | > 100 | 7.4 | > 100 | > 100 |  | 7.44 |  | 2.72 | 13.1 | > 100 | 3.41 | 1.78 | 2.45 | 3.5 | > 100 |  | 3.33 |  |
| COC(=O)C1Cc2c(n(Cc3ccccc3)c3ccccc23)C(CCC(=O)O)N1C(C)C (centres undefined) | > 100 | > 100 | > 100 | > 100 | > 100 | > 100 | > 100 µM | > 100 | > 100 |  |  |  |  |  |  |  |  |  |  |  |
| Nc1nc(Cl)c2ncn(Cc3ccc(C45CC6CC(CC(C6)C4)C5)c(O)c3)c2n1 | 14.1 | 25.5 | 21.8 | 21.4 | 21.4 |  | 46.7 µM | 22.8 | 28.1 | 1.85 | 3.77 | 8.78 | 2.99 | 5.34 | 6.53 | 5.64 |  | 4.04 | 2.93 | 12.7 |
